Laboratory results reported in ChEMBL document CHEMBL3407333, “Synthesis and biological evaluation of second-generation tropanol-based androgen receptor modulators” (J Med Chem, 2015).

Experiments:
Androgen receptor [1] = molecular target: T1, Androgen receptor (Homo sapiens, UniProt P10275); experiment: Antagonist activity against pSG5-tagged human androgen receptor expressed in COS1 cells assessed as reduction in receptor-mediated transcriptional activity by AR-regulated rat probasin promoter fragment driven firefly luciferase reporter assay; format: cell-based, COS-1
T1 sequence (P10275 whole entry): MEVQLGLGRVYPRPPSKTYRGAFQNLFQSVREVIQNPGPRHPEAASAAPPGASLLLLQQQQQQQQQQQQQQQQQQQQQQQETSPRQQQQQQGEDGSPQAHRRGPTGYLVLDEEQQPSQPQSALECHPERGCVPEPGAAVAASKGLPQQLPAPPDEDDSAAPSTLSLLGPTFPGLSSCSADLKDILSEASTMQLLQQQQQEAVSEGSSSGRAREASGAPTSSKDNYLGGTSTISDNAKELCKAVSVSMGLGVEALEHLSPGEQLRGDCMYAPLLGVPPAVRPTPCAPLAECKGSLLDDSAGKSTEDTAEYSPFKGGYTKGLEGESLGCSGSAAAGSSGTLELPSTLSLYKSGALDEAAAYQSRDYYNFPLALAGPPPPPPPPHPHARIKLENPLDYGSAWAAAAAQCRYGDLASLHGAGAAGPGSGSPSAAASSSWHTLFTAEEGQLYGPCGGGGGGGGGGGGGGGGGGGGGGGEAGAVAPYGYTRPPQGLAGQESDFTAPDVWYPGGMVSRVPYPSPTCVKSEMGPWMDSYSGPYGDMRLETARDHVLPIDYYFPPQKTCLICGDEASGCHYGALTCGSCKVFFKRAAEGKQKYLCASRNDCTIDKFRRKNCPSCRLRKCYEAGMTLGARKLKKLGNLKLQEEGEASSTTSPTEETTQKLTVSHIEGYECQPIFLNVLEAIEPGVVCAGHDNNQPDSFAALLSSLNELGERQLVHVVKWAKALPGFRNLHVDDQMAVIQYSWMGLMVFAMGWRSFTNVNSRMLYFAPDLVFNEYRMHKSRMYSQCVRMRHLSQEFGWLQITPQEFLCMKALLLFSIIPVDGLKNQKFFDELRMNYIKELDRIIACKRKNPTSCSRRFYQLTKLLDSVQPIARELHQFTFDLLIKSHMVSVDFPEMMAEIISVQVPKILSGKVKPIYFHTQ

Androgen receptor [2] = molecular target: T1, Androgen receptor; experiment: Displacement of [3H]R1881 from pSG5-tagged human androgen receptor expressed in COS1 cells assessed as relative binding inhibition; format: cell-based, COS-1

With `N#Cc1ccc(N2[C@@H]3CC[C@H]2C[C@@H](O)C3)cc1Cl` the IC50 (Androgen receptor [1]) was 31.7 nM and the IC50 (Androgen receptor [2]) was 31.7 nM.
`N#Cc1ccc(N2C3CCC2CC(=O)C3)cc1C(F)(F)F` was tested, and the IC50 (Androgen receptor [1]) was 66 nM and the IC50 (Androgen receptor [2]) was 66 nM.
In the case of `Cc1c(N2C3CCC2CC(C)(O)C3)ccc(C#N)c1Cl` (stereo unspecified), the IC50 (Androgen receptor [1]) is reported as 2.11 nM and the IC50 (Androgen receptor [2]) is reported as 2.11 nM.
Work on `N#Cc1ccc(N2[C@H]3CC[C@H]2CC(O)C3)cc1C(F)(F)F` (relative stereo) yielded an IC50 (Androgen receptor [1]) of 39.8 nM and an IC50 (Androgen receptor [2]) of 39.8 nM.
`CC1(O)C[C@@H]2CC[C@@H](C1)N2c1ccc(C#N)c(C(F)(F)F)c1` (relative stereo) showed an IC50 (Androgen receptor [1]) of 29.3 nM and an IC50 (Androgen receptor [2]) of 29.3 nM.
In the case of `N#Cc1ccc(N2[C@H]3CC[C@H]2CC(NCc2ccccc2)C3)cc1C(F)(F)F` (relative stereo), the IC50 (Androgen receptor [1]) is reported as 233 nM and the IC50 (Androgen receptor [2]) is reported as 233 nM.
With `CS(=O)(=O)NC1C[C@@H]2CC[C@@H](C1)N2c1ccc(C#N)c(C(F)(F)F)c1` (relative stereo) the IC50 (Androgen receptor [1]) was 2650 nM and the IC50 (Androgen receptor [2]) was 2650 nM.
Work on `CCS(=O)(=O)NC1C[C@@H]2CC[C@@H](C1)N2c1ccc(C#N)c(C(F)(F)F)c1` (relative stereo) yielded an IC50 (Androgen receptor [1]) of 2040 nM and an IC50 (Androgen receptor [2]) of 2040 nM.
